Results on eight compounds are retold here after patent publication US20020169364A1, “Brainstem and limbic disorder (BALD)” (priority 2000, published 2002).

The structures appear in SMILES notation. Where a name gives a salt, the structure may show the parent alone.

A short description of this assay: Clinical use in treatment protocol of the BALD syndrome. In kind it is in vivo. As to conditions: for clinical outcome, pulmonary problems: BALD patients with pulmonary problems (restrictive lung disease); for clinical outcome in treatment of the BALD syndrome: patients with BALD syndrome, core treatment steps (calcium channel blocker, anti-viral/anti-fungal, chelating agent). The source says:
The treatment protocol consists of ruling in or out of the BALD syndrome then treatment of the core pathology of the syndrome if present. This consists of treatment of the most acute aspects of the BALD syndrome followed by more conservative treatments of the more chronic symptoms or pathology. If diagnosis progresses to brainstem or other neuron damage with significant inflammation the treatment consists of immediate inflammation reduction and stabilization of the immune system. This is followed by conservative treatments as indicated in the diagnosis of the disorder.
The treatment proceeds in steps.
Step one in the treatment of the disorder would start with drugs that are known to block calcium intake channels of neurons. […] The usual dosage can be 30 mg. three times daily more or less in the clinical judgment of the physician.
Step three in the treatment of a BALD syndrome involving viral infection to any degree is to administer anti-viral and anti-fungal drugs to the patient. […] This is a synthetic acyclic purine nucleoside analog.
This Is a synthetic broad spectrum bis-trazole antifungal agent. […] This is a synthetic trazole antifungal agent with the chemical name of itraconazole.
Step seven is to administer a chelating agent to the patient to eliminate toxic heavy metals from the system.
Azulfadine should be started for patients with irritable bowel syndrome.

Turning to `COc1cc(C(=O)NS(=O)(=O)c2ccccc2C)ccc1Cc1cn(C)c2ccc(NC(=O)OC3CCCC3)cc12` [Accolate, zafirlukast], the “clinical outcome, pulmonary problems” value was “clinically successful”.

Consider `Nc1nc2c(ncn2COCCO)c(=O)[nH]1` [Acyclovir, acycloguanosine], for which the “clinical outcome in treatment of the BALD syndrome” value (“clinical outcome in treatment” for short) is on record as “Clinical success”.

For the compound `O=C(O)c1cc(/N=N/c2ccc(S(=O)(=O)Nc3ccccn3)cc2)ccc1O` [Azulfadine, sulfasalazine], the “clinical outcome, irritable bowel syndrome” value (BALD patients with irritable bowel syndrome) is listed as “successful drug in clinical usage”.

As for `O=C([O-])CN(CCN(CC(=O)[O-])CC(=O)O)CC(=O)O.[Na+].[Na+]` [EDTA, edate disodium], the “clinical outcome in treatment” value was “Clinical success”.

On to `O=C1CN=C(c2ccccc2Cl)c2cc([N+](=O)[O-])ccc2N1` [Klonapin, clonazepam], for which the “clinical outcome, anti-anxiety” value (BALD patients, anti-anxiety drug) is given as “clinically successful”.

As for `CC(C)(O)c1ccccc1CC[C@@H](SCC1(CC(=O)O)CC1)c1cccc(/C=C/c2ccc3ccc(Cl)cc3n2)c1` [Singulair, sodium montelukast], the “clinical outcome, pulmonary problems” value was “Clinical success”.

Regarding `CC(C)[C@H](N)C(=O)OCCOCn1cnc2c(=O)[nH]c(N)nc21` [Valtrex, valacyclovir hydrochloride], the “clinical outcome in treatment” value is “clinically successful”.

On to `OC(Cn1cncn1)(Cn1cncn1)c1ccc(F)cc1F` [difulcan, fluconazole], for which the “clinical outcome in treatment” value is recorded as “good clinical results”.
